Data reported in article PMC9230623, “Design, Synthesis, In Vitro Biological Activity Evaluation and Stabilized Nanostructured Lipid Carrier Formulation of Newly Synthesized Schiff Bases-Based TMP Moieties” (Pharmaceuticals, 2022).
Like-named read-outs stand apart in the source and are kept apart here.

Columns and labels:
[1] = test system: four human cancer cell lines; set-up: method as in PMID 27149641; conditions: four human cancer cell lines ref 21; read-out: IC50 antiproliferative activity; cited from earlier work
[2] = test system: MCF-7 breast cancer cell line; conditions: MCF-7 ref 26; cited from earlier work
tubulin [3] = test system: tubulin; set-up: method as in PMID 32325332; conditions: at its IC50 dose level ref 22; cited from earlier work
MDA-MB-231 cells [4] = assay: Cell cycle analysis (FACS, DNA flow cytometry); type: cell-based, human
Source text: For the purpose of studying the influence of these hydrazides on the cell cycle progression of MDA-MB-231 human malignant cell lines. A FACS analysis was used to determine the DNA proportion of cell nuclei.
(§1) See Supplementary Materials—Appendix SB.

[5] = test system: MDA-MB-231 breast cancer cell line; assay: Cytotoxic assay against MDA-MB-231 breast cancer cell line; type: cell-based; conditions: Homo sapiens
Protocol: The newly prepared Schiff bases 2–5g were screened for their in vitro cytotoxic activity against the MDA-MB-231 breast cancer cell line taking CA-4 as a reference drug. […] In addition, further structure extension to give N-aryl hydrazinyl molecules 4a–5g produced compounds with considerable cytotoxic activity, which may give an indication that the aryl ring is important for cytotoxic activity. […]
Cytotoxic activity of the prepared schiff bases against MDA-MB-231 breast cell Line was determined according previously reported methods. (See Supplementary Materials—Appendix SB).

[6] = test system: normal breast cell line MCF-10A; assay: Cytotoxic assay against normal breast cell line MCF-10A; type: cell-based; conditions: Homo sapiens, read-out: IC50 Value (μM) MCF-10A
[7] = test system: mitochondrial membrane potential of MDA-MB-231 cells; assay: Mitochondrial membrane potential by flow cytometry; type: cell-based, human
Protocol: Most of the known anticancer molecules induce apoptotic cascade via activation of the intrinsic pathway via release of cytochrome-c after depolarization of mitochondrial membrane. The potential status of the mitochondrial membrane is determined by the electrochemical gradient (Δψ).
as §1

tubulin [8] = assay: Tubulin polymerization inhibition by immunofluorescence analysis (confocal microscope); type: cell-based, human; conditions: at its IC50 concentration, MDA-MB-231, compared with untreated cells
Protocol: Several investigations have shown that TMP-containing compounds such as Col and CA-4 interact with tubulin at the colchicine binding site, inhibiting microtubule assembly. The effects of representative Schiff bases on the inhibition of tubulin assembly were evaluated. […] Tubulin polymerization inhibitory activity against the MDA-MB-231 cell line was investigated by immunofluorescence analysis using a confocal microscope.
(§2) Compound 4h was evaluated for their Tubulin inhibitory activity according to manufacturer’s instructions.

β-tubulin = assay: Tubulin polymerization inhibitory activity, ELISA assay for β-tubulin; type: cell-based, human; conditions: at IC50 (1.27 μM), compared with no treatment control
Protocol: In addition, compound 4h was subjected to in vitro tubulin polymerization inhibitory activity assay using ELISA assay for β-tubulin.
as §2

MDA-MB-231 cells [9] = assay: Annexin V FITC/PI staining apoptosis assay; type: cell-based, human
Protocol: A double staining examination of annexin V FITC/propidium iodide (PI) was used to evaluate compound 4h’s influence on apoptosis and estimate the percentage of the total, early, and late apoptosis in MDA-MB-231 cells. […] Furthermore, the proportion of early and late apoptotic cells rose by 23.12- and 63.67-fold, respectively, as compared to the untreated control cells.
as §1

[10] = MDA-MB-231, mean of three independent replicates ± SE, read-out: IC50 Value (μM) MDA-MB-231
[11] = compared to untreated control cells

Which IC50 [1] does the source give for `COc1ccc2c(c1)NC(/C=C(\C)C(=O)c1cc(OC)c(OC)c(OC)c1)C2` (centres unmarked) [V] here?
The IC50 was 3 to 9 nM.

With `COc1cc(C(=O)N/N=C/c2cc3ccccc3[nH]2)cc(OC)c1OC` [VII] as the compound, how does the IC50 [2] read?
Its IC50 is 870 nM.

Which “in vitro tubulin polymerization inhibition activity” value (tubulin [3]) does the source give for `COc1cc(C(=O)NNC(=O)c2ccc(NC(=O)CCl)cc2)cc(OC)c1OC` [VI] here?
The value was 83.1%.

Which results are given for `COc1cc(/C=C(\NC(=O)c2cc(OC)c(OC)c(OC)c2)C(=O)N/N=C/c2cc(Br)c(O)c(Br)c2)cc(OC)c1OC` [Compound 4h, N-((Z)-3-((E)-2-(3,5-Dibromo-4-hydroxybenzylidene)hydrazinyl)-3-oxo-1-(3,4,5-trimethoxyphenyl)prop-1-en-2-yl)-3,4,5-trimethoxybenzamide]?
%Pre-G1 (MDA-MB-231 cells [4]; IC50 concentration, 24 h): 31.27%; %DIP G2/M (MDA-MB-231 cells [4]; IC50 concentration, 24 h, untreated control 8.22%): 38.65%; cell cycle arrest at G2/M phase relative to control cells (MDA-MB-231 cells [4]; versus control MDA-MB-231 cells): fivefold; increase in percentage of pre-G1 phase relative to negative control (MDA-MB-231 cells [4]; versus negative control cells): ~19 fold; IC50 [5, 10]: 1.27 ± 0.18 µM; IC50 ([6]; mean of three independent replicates ± SE): 30.8 ± 2.32 µM; reduction in the level of MMPψ ([7]; IC50 concentration, 24 h, in comparison with untreated cells): 65.23%; decrease in the level of MMP ([7]; compared to negative control cells): 3 fold; tubulin polymerization inhibition activity (immunofluorescence) (tubulin [8]): good tubulin polymerization inhibition activity; percent inhibition of tubulin polymerization (β-tubulin): 78.14%; overall apoptosis (MDA-MB-231 cells [9]; 24 h, no treatment control 1.63%): 31.27%; rise of early apoptotic cells (MDA-MB-231 cells [9]; [11]): 23.12 fold; rise of late apoptotic cells (MDA-MB-231 cells [9]; [11]): 63.67 fold

What does the source list for `COc1ccc(/C=C\c2cc(OC)c(OC)c(OC)c2)cc1O` [CA-4, combretastatin A-4, reference compound]?
IC50 ([5]; MDA-MB-231, read-out: IC50 Value (μM) MDA-MB-231): 0.54 ± 0.04 µM; IC50 [6]: 8.86 ± 0.67 µM

For `COc1cc(/C=C(\NC(=O)c2cc(OC)c(OC)c(OC)c2)C(=O)N/N=C(\C)c2ccc(Br)cc2)cc(OC)c1OC` [Compound 5c, N-((Z)-3-((E)-2-(1-(4-Bromophenyl)ethylidene)hydrazinyl)-3-oxo-1-(3,4,5-trimethoxyphenyl)prop-1-en-2-yl)-3,4,5-trimethoxybenzamide], which melting point is on record?
The melting point was 244 to 246 °C.

And the IC50 [5, 10]?
Its IC50 is 20.7 ± 1.84 µM.
